Measurements published in patent US6358885B1, “Substituted phenylheterocyclic herbicides” (Mississippi State University, priority 1992, dated 2002).

Assays:
barley [1] = test: Test B preemergence/postemergence greenhouse plant response rating 0 to 10; type: in vivo, Hordeum vulgare; conditions: 0 to 10 scale
Summary of the method: (§1)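 Postemergence treatment of plants two to eighteen cm tall ran alongside preemergence treatment of planted seed, each using compound in a non-phytotoxic solvent.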

bedstraw = test: as above; type: in vivo, Galium aparine; conditions: 0 to 10 scale
Summary of the method: as §1

cheatgrass = test: as above; type: in vivo, Bromus secalinus; conditions: 0 to 10 scale
Summary of the method: as §1

cocklebur = test: as above; type: in vivo, Xanthium pensylvanicum; conditions: 0 to 10 scale
Summary of the method: as §1

giant foxtail [2] = test: as above; type: in vivo, Setaria faberii; conditions: 0 to 10 scale
Summary of the method: as §1

lambsquarters = test: as above; type: in vivo, Chenopodium album; conditions: 0 to 10 scale
Summary of the method: as §1

morningglory [3] = test: as above; type: in vivo, Ipomoea hederacea; conditions: 0 to 10 scale
Summary of the method: as §1

soybean [4] = test: as above; type: in vivo, Glycine max; conditions: 0 to 10 scale
Summary of the method: as §1

velvetleaf = test: as above; type: in vivo, Abutilon theophrasti; conditions: 0 to 10 scale
Summary of the method: as §1

barley [5] = test: Test C preemergence/postemergence greenhouse plant response rating 0 to 100; type: in vivo, Hordeum vulgare; conditions: POSTEMERGENCE; for Plant response rating Barley Igri: 0 to 100 scale
Summary of the method: (§2)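 Compounds in non-phytotoxic solvent went onto sandy loam before emergence (seeded one day earlier) or onto plants at the one-to-four leaf stage. Duck salad was treated via flood water (~2.5 cm, maintained) over silt loam.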

blackgrass = test: as above; type: in vivo, Alopecurus myosuroides; conditions: POSTEMERGENCE; for Plant response rating, Blackgrass: 0 to 100 scale
Summary of the method: as §2

chickweed = test: as above; type: in vivo, Stellaria media; conditions: POSTEMERGENCE; for Plant response rating, Chickweed: 0 to 100 scale
Summary of the method: as §2

giant foxtail [6] = test: as above; type: in vivo, Setaria faberii; conditions: POSTEMERGENCE; for Plant response rating, Giant foxtail: 0 to 100 scale
Summary of the method: as §2

morningglory [7] = test: as above; type: in vivo, Ipomoea hederacea; conditions: POSTEMERGENCE; for Plant response rating, Morningglory: 0 to 100 scale
Summary of the method: as §2

rape = test: as above; type: in vivo, Brassica napus; conditions: POSTEMERGENCE; for Plant response rating, Rape: 0 to 100 scale
Summary of the method: as §2

sorghum = test: as above; type: in vivo, Sorghum bicolor; conditions: POSTEMERGENCE; for Plant response rating, Sorghum: 0 to 100 scale
Summary of the method: as §2

soybean [8] = test: as above; type: in vivo, Glycine max; conditions: POSTEMERGENCE; for Plant response rating, Soybean: 0 to 100 scale
Summary of the method: as §2

rice = test: Test C flood test plant response rating 0 to 100; type: in vivo, Oryza sativa; conditions: for Plant response rating Rice Japonica: flood test species listed under POSTEMERGENCE, 0 to 100 scale
Summary of the method: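 Compounds in non-phytotoxic solvent applied preemergence to sandy loam one day after planting, postemergence at the 1–4 leaf stage, or to ~2.5 cm floodwater over silt loam.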

Question: With `CCC(C)Oc1cc(-c2nn3c(c2Cl)CCCC3)c(F)cc1Cl` (centres unmarked) [Compound 48] as the molecule, how does the “Plant response rating, Barley” value (barley [1]; POSTEMERGENCE, Rate 50 g/ha) read?
Answer: 7

Question: What about the “Plant response rating, Barley” value (barley [1]; POSTEMERGENCE, Rate 200 g/ha) of the same molecule?
Answer: 5

Question: And the “Plant response rating, Barley” value (barley [1]; PREEMERGENCE, Rate 50 g/ha)?
Answer: 0

Question: And the “Plant response rating, Barley” value (barley [1]; Rate 200 g/ha, PREEMERGENCE)?
Answer: 0

Question: And the “Plant response rating, Bedstraw” value (bedstraw; POSTEMERGENCE, Rate 50 g/ha)?
Answer: 9

Question: What about the “Plant response rating, Bedstraw” value (bedstraw; POSTEMERGENCE, Rate 200 g/ha) of the same molecule?
Answer: 9

Question: What about the “Plant response rating, Bedstraw” value (bedstraw; PREEMERGENCE, Rate 50 g/ha) of the same molecule?
Answer: 3

Question: And the “Plant response rating, Bedstraw” value (bedstraw; Rate 200 g/ha, PREEMERGENCE)?
Answer: 9

Question: What about the “Plant response rating, Cheatgrass” value (cheatgrass; POSTEMERGENCE, Rate 50 g/ha) of the same molecule?
Answer: 6

Question: And the “Plant response rating, Cheatgrass” value (cheatgrass; POSTEMERGENCE, Rate 200 g/ha)?
Answer: 7

Question: What about the “Plant response rating, Cheatgrass” value (cheatgrass; PREEMERGENCE, Rate 50 g/ha) of the same molecule?
Answer: 0

Question: What about the “Plant response rating, Cheatgrass” value (cheatgrass; Rate 200 g/ha, PREEMERGENCE) of the same molecule?
Answer: 2

Question: And the “Plant response rating, Cocklebur” value (cocklebur; POSTEMERGENCE, Rate 50 g/ha)?
Answer: 7

Question: What about the “Plant response rating, Cocklebur” value (cocklebur; POSTEMERGENCE, Rate 200 g/ha) of the same molecule?
Answer: 9

Question: What about the “Plant response rating, Cocklebur” value (cocklebur; Rate 200 g/ha, PREEMERGENCE) of the same molecule?
Answer: 0

Question: What about the “Plant response rating, Giant foxtail” value (giant foxtail [2]; POSTEMERGENCE, Rate 50 g/ha) of the same molecule?
Answer: 6

Question: And the “Plant response rating, Giant foxtail” value (giant foxtail [2]; PREEMERGENCE, Rate 50 g/ha)?
Answer: 6

Question: What about the “Plant response rating, Giant foxtail” value (giant foxtail [2]; Rate 200 g/ha, POSTEMERGENCE) of the same molecule?
Answer: 9

Question: And the “Plant response rating, Giant foxtail” value (giant foxtail [2]; Rate 200 g/ha, PREEMERGENCE)?
Answer: 9

Question: And the “Plant response rating, Lambsquarter” value (lambsquarters; POSTEMERGENCE, Rate 50 g/ha)?
Answer: 10

Question: What about the “Plant response rating, Lambsquarter” value (lambsquarters; PREEMERGENCE, Rate 50 g/ha) of the same molecule?
Answer: 10

Question: And the “Plant response rating, Lambsquarter” value (lambsquarters; Rate 200 g/ha, POSTEMERGENCE)?
Answer: 10

Question: And the “Plant response rating, Lambsquarter” value (lambsquarters; Rate 200 g/ha, PREEMERGENCE)?
Answer: 10

Question: And the “Plant response rating, Morningglory” value (morningglory [3]; POSTEMERGENCE, Rate 50 g/ha)?
Answer: 10

Question: And the “Plant response rating, Morningglory” value (morningglory [3]; PREEMERGENCE, Rate 50 g/ha)?
Answer: 1

Question: And the “Plant response rating, Morningglory” value (morningglory [3]; Rate 200 g/ha, POSTEMERGENCE)?
Answer: 10

Question: And the “Plant response rating, Morningglory” value (morningglory [3]; Rate 200 g/ha, PREEMERGENCE)?
Answer: 3

Question: And the “Plant response rating, Soybean” value (soybean [4]; POSTEMERGENCE, Rate 50 g/ha)?
Answer: 7

Question: What about the “Plant response rating, Soybean” value (soybean [4]; PREEMERGENCE, Rate 50 g/ha) of the same molecule?
Answer: 0

Question: What about the “Plant response rating, Soybean” value (soybean [4]; Rate 200 g/ha, POSTEMERGENCE) of the same molecule?
Answer: 7

Question: What about the “Plant response rating, Soybean” value (soybean [4]; Rate 200 g/ha, PREEMERGENCE) of the same molecule?
Answer: 0

Question: And the “Plant response rating, Velvetleaf” value (velvetleaf; POSTEMERGENCE, Rate 50 g/ha)?
Answer: 9

Question: And the “Plant response rating, Velvetleaf” value (velvetleaf; PREEMERGENCE, Rate 50 g/ha)?
Answer: 0

Question: What about the “Plant response rating, Velvetleaf” value (velvetleaf; Rate 200 g/ha, POSTEMERGENCE) of the same molecule?
Answer: 10

Question: What about the “Plant response rating, Velvetleaf” value (velvetleaf; Rate 200 g/ha, PREEMERGENCE) of the same molecule?
Answer: 4

Question: And the “Plant response rating Barley Igri” value (barley [5]; 62 g/ha)?
Answer: 30

Question: And the “Plant response rating Barley Igri” value (barley [5]; 250 g/ha)?
Answer: 40

Question: And the “Plant response rating (0 to 100), Barley Igri” value (barley [5]; Rate 4 g/ha)?
Answer: 10

Question: And the “Plant response rating (0 to 100), Barley Igri” value (barley [5]; Rate 16 g/ha)?
Answer: 20

Question: What about the “Plant response rating, Blackgrass” value (blackgrass; 62 g/ha) of the same molecule?
Answer: 50

Question: What about the “Plant response rating, Blackgrass” value (blackgrass; 250 g/ha) of the same molecule?
Answer: 60

Question: And the “Plant response rating (0 to 100), Blackgrass” value (blackgrass; Rate 4 g/ha)?
Answer: 20

Question: What about the “Plant response rating (0 to 100), Blackgrass” value (blackgrass; Rate 16 g/ha) of the same molecule?
Answer: 30

Question: What about the “Plant response rating, Chickweed” value (chickweed; 62 g/ha) of the same molecule?
Answer: 60

Question: What about the “Plant response rating, Chickweed” value (chickweed; 250 g/ha) of the same molecule?
Answer: 80

Question: What about the “Plant response rating (0 to 100), Chickweed” value (chickweed; Rate 4 g/ha) of the same molecule?
Answer: 10

Question: And the “Plant response rating (0 to 100), Chickweed” value (chickweed; Rate 16 g/ha)?
Answer: 30

Question: And the “Plant response rating, Giant foxtail” value (giant foxtail [6]; 62 g/ha)?
Answer: 40

Question: And the “Plant response rating, Giant foxtail” value (giant foxtail [6]; 250 g/ha)?
Answer: 90

Question: What about the “Plant response rating (0 to 100), Giant foxtail” value (giant foxtail [6]; Rate 4 g/ha) of the same molecule?
Answer: 20

Question: What about the “Plant response rating (0 to 100), Giant foxtail” value (giant foxtail [6]; Rate 16 g/ha) of the same molecule?
Answer: 30

Question: And the “Plant response rating, Morningglory” value (morningglory [7]; 62 g/ha)?
Answer: 60

Question: What about the “Plant response rating, Morningglory” value (morningglory [7]; 250 g/ha) of the same molecule?
Answer: 95

Question: What about the “Plant response rating (0 to 100), Morningglory” value (morningglory [7]; Rate 4 g/ha) of the same molecule?
Answer: 30

Question: And the “Plant response rating (0 to 100), Morningglory” value (morningglory [7]; Rate 16 g/ha)?
Answer: 50

Question: What about the “Plant response rating, Rape” value (rape; 62 g/ha) of the same molecule?
Answer: 50

Question: What about the “Plant response rating, Rape” value (rape; 250 g/ha) of the same molecule?
Answer: 90

Question: What about the “Plant response rating (0 to 100), Rape” value (rape; Rate 4 g/ha) of the same molecule?
Answer: 30

Question: What about the “Plant response rating (0 to 100), Rape” value (rape; Rate 16 g/ha) of the same molecule?
Answer: 30

Question: What about the “Plant response rating, Sorghum” value (sorghum; 62 g/ha) of the same molecule?
Answer: 50

Question: What about the “Plant response rating, Sorghum” value (sorghum; 250 g/ha) of the same molecule?
Answer: 70

Question: What about the “Plant response rating (0 to 100), Sorghum” value (sorghum; Rate 4 g/ha) of the same molecule?
Answer: 30

Question: What about the “Plant response rating (0 to 100), Sorghum” value (sorghum; Rate 16 g/ha) of the same molecule?
Answer: 40

Question: What about the “Plant response rating, Soybean” value (soybean [8]; 62 g/ha) of the same molecule?
Answer: 40

Question: And the “Plant response rating, Soybean” value (soybean [8]; 250 g/ha)?
Answer: 50

Question: What about the “Plant response rating (0 to 100), Soybean” value (soybean [8]; Rate 4 g/ha) of the same molecule?
Answer: 30

Question: And the “Plant response rating (0 to 100), Soybean” value (soybean [8]; Rate 16 g/ha)?
Answer: 30

Question: What about the “Plant response rating (0 to 100), Rice Japonica” value (rice; POSTEMERGENCE section, flood test, Rate 4 g/ha) of the same molecule?
Answer: 10

Question: What about the “Plant response rating (0 to 100), Rice Japonica” value (rice; Rate 16 g/ha, under POSTEMERGENCE head (flood test species)) of the same molecule?
Answer: 20

Question: And the “Plant response rating Rice Japonica” value (rice; 62 g/ha)?
Answer: 30

Question: And the “Plant response rating Rice Japonica” value (rice; 250 g/ha)?
Answer: 60
